Measurements taken from ChEMBL document CHEMBL1143439, “Open-chain half-bastadins mimic the effects of cyclic bastadins on calcium homeostasis in cultured neurons” (Bioorg Med Chem Lett, 2008).
Active and inactive are the calls of the source. No cut-off for these calls is given here.

Legend:
[1] = species on record: Rattus norvegicus; experiment: Activity at RYR2 receptor in rat cerebellar granule neurons assessed as increase in intracellular calcium level at 20 uM; type: cell-based
[2] = species on record: Rattus norvegicus; experiment: Activity at RYR2 receptor in rat cerebellar granule neurons assessed activation of [45Ca2+] uptake at 20 uM after 10 mins
[3] = target: Ryanodine receptor 1 (Homo sapiens, UniProt P21817); experiment: Binding affinity to RYR1 channels by calcium mobilization assay
Ryanodine receptor 1, sequence (P21817 whole entry): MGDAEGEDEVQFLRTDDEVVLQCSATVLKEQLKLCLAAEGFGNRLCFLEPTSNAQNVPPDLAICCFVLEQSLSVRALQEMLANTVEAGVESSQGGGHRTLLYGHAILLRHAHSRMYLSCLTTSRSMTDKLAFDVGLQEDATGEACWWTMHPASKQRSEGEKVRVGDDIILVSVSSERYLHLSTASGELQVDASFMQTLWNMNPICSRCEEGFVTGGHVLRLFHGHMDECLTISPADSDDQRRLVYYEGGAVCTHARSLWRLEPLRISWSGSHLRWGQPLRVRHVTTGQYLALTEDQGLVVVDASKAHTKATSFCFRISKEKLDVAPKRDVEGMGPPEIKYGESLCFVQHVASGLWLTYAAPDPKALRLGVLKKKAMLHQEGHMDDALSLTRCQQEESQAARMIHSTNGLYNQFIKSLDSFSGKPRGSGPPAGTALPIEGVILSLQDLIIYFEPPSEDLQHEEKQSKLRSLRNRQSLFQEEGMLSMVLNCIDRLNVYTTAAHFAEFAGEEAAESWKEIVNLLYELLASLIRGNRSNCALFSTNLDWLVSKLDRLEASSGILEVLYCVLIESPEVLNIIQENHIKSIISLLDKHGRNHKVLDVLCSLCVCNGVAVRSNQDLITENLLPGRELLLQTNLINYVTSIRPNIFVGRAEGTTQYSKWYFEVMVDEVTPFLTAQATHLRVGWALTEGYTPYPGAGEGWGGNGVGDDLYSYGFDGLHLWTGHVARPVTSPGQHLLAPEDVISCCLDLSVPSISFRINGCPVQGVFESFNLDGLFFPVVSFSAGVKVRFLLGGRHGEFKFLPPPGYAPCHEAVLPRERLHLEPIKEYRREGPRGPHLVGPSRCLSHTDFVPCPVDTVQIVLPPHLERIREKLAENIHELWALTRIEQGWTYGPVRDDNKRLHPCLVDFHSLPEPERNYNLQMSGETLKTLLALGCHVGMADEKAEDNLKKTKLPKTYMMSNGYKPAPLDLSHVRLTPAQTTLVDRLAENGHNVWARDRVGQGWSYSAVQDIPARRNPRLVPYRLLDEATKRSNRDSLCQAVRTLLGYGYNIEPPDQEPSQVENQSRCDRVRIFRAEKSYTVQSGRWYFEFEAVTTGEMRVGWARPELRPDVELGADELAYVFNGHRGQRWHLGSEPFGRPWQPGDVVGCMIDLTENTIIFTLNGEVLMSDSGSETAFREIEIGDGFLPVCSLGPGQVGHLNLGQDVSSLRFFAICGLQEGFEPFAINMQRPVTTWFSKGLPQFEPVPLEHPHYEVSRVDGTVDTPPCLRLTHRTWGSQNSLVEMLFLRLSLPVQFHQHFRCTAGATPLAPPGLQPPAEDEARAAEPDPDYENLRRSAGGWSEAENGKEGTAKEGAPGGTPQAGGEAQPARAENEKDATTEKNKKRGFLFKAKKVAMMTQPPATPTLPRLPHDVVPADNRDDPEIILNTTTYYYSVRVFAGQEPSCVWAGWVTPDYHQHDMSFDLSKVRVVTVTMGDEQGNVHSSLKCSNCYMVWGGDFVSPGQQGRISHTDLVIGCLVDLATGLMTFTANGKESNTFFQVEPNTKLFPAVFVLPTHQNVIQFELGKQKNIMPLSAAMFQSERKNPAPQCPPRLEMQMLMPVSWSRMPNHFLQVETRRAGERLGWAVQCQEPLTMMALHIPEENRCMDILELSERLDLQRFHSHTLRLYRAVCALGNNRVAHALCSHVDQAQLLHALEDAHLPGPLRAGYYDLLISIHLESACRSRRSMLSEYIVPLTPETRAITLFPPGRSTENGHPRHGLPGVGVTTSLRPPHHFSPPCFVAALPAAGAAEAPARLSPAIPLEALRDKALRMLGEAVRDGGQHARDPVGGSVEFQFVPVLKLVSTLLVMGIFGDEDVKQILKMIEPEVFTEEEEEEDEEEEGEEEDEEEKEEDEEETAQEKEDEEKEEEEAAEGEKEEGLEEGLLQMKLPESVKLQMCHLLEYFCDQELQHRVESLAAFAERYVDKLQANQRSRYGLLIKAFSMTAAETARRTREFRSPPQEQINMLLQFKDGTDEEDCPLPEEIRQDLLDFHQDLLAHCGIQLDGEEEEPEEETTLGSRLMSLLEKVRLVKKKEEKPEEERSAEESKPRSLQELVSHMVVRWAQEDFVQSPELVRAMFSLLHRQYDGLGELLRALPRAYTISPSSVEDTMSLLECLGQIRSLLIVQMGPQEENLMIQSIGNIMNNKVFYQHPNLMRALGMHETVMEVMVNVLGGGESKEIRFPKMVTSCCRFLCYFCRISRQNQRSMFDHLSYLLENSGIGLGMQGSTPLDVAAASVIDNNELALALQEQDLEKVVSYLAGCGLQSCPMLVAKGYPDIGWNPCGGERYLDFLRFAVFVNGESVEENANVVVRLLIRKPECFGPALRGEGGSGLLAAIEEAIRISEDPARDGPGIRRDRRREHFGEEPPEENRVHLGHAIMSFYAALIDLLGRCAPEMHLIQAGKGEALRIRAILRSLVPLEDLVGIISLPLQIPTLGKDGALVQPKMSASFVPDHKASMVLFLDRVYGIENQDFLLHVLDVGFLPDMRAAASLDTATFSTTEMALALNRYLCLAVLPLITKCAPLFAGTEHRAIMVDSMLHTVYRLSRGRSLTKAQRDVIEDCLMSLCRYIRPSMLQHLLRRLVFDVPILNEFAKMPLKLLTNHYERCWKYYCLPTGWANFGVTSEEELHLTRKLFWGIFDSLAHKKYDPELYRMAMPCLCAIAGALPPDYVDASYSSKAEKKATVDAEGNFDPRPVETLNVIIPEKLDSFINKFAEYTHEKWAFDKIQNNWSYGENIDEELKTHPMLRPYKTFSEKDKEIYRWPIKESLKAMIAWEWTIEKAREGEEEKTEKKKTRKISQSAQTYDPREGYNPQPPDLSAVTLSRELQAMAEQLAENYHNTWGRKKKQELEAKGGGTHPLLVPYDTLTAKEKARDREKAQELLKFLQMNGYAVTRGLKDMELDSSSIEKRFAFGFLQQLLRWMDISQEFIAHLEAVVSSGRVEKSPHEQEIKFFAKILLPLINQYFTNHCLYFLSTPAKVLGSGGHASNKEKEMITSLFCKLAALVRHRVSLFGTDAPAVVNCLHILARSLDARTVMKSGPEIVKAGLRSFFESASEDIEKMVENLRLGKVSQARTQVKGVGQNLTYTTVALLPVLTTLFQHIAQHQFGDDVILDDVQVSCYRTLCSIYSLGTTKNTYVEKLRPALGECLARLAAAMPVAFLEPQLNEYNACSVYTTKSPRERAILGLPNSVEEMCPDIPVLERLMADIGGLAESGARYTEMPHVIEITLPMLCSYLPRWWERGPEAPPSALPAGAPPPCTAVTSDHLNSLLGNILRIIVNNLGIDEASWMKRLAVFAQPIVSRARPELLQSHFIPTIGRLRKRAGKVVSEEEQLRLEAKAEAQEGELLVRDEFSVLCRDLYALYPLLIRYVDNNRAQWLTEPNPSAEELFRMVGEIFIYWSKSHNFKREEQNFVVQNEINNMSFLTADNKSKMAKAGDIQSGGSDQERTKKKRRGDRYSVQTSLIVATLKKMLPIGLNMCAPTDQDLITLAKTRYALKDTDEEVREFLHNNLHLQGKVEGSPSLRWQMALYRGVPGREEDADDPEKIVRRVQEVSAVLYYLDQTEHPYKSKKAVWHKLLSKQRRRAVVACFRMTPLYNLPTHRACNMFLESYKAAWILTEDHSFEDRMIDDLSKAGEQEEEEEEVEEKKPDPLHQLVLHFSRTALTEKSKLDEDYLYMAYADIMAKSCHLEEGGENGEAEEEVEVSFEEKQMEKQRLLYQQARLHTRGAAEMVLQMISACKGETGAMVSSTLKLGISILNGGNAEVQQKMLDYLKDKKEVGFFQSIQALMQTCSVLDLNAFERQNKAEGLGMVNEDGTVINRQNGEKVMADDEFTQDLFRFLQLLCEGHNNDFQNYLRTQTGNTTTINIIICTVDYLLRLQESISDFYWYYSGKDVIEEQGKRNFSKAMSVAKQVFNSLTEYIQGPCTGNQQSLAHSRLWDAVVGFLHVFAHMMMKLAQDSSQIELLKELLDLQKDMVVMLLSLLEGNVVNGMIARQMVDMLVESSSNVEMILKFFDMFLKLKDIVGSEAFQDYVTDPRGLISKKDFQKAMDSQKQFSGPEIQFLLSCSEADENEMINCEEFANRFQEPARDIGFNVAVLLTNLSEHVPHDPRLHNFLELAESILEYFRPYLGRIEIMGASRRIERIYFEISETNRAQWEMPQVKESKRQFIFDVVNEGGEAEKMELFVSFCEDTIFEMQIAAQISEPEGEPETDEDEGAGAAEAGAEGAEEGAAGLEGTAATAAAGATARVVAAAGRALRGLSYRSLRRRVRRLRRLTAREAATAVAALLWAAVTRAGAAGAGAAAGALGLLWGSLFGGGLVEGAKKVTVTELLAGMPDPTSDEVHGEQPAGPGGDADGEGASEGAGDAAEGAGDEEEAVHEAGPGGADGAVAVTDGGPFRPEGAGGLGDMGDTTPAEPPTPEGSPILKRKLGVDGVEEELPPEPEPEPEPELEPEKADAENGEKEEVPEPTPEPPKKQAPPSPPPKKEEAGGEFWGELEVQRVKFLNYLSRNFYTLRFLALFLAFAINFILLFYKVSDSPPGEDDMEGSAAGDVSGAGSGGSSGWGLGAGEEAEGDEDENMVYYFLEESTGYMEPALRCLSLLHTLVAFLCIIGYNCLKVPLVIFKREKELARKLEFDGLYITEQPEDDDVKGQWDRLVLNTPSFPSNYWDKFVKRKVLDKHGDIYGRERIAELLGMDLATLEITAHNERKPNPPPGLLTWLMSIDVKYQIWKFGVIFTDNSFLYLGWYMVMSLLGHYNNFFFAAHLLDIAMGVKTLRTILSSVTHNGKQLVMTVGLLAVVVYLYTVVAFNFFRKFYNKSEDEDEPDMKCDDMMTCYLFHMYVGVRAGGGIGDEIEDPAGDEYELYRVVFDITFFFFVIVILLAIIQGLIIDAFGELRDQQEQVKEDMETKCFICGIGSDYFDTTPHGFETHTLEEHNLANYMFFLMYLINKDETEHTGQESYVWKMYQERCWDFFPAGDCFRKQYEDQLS

Row | SMILES | Activity [1] | Activity [2] | IC50 [3] [µM] | EC50 [3] [µM]
1 | O=C1NCCc2cc(Br)c(O)c(c2)Oc2ccc(cc2Br)CCNC(=O)/C(=N\O)Cc2cc(Br)c(O)c(c2)Oc2c(Br)cc(cc2Br)C/C1=N/O | Active | Active |  | 
2 | O=C1CCNC(=O)CCc2ccc(c(Br)c2)Oc2cc(cc(Br)c2O)CCN1 |  |  | 6 | 
3 | O=C(NCCc1cc(Br)c(Oc2cc(NC(=O)c3ccccc3)ccc2O)c(Br)c1)c1ccccc1 | inactive |  |  | 
4 | O=C1CCc2ccc(c(Br)c2)Oc2cc(cc(Br)c2O)CCN1 |  |  |  | 11
5 | CCCCNC(=O)/C(Cc1cc(Br)c(Oc2cc(C/C(=N\O)C(=O)NCCCC)cc(Br)c2O)c(Br)c1)=N/O | Active | Active |  | 
